Measured values published in patent publication US4613618A, “Method for treating disorders of lipid metabolism using benzene sulfonamides” (Choay S.A., priority 1981, dated 1986).
Where two headings read alike, the source gives them in different places.

Tests used:
[1] = tested on: hyperlipidemia caused by the administration of TRITON; experiment: Triton test: lipid regulating activity in hyperlipidemia caused by TRITON W. R.; format: in vivo, WISTAR male rats; conditions: Rattus norvegicus, po, 250 mg/kg orally, 6 hours and/or 24 hours
Method: In a first series of experiments, products were tested on a hyperlipidemia caused by the administration of TRITON according to the following procedure.
The tests were carried out on groups of five WISTAR male rats whose weight varied from 150 to 175 g.
The tested products were administered, orally in the form of a 3% aqueous solution of tragacanth gum in the ratio of 1 ml per 100 g of body weight, in an amount corresponding to 250 mg/kg.
To carry out these tests, a hyperlipidemia was caused in the animals, by means of the product marketed by the ROHM and HAAS Company under the name TRITON W. R.
On this hyperlipidemia the effects obtained by the administration of the active substances according to the invention, are observed.
The tests were carried out as follows:
the rats were fasted for 18 hours, then the TRITON W. R. was administered intravenously in 10% aqueous solution in the proportion of 200 mg/kg;
simultaneously 250 mg/kg of the product under test was administered orally;
6 hours and/or 24 hours later, blood assays were carried out conventionally.
to the total cholesterol, […]

[2] = tested on: atherosclerosis inducing diet (cholesterol, cholic acid, vitamine D2); experiment: Atherosclerosis inducing diet: biochemical exams; format: in vivo, Wistar female rats; parameters: CHOLESTEROL T, % reduction with respect to the control diet / CHOLESTEROL HDL, % with respect to the control diet / CHOLESTEROL LDL, % reduction with respect to the control diet / TRIGLYCERIDES, % reduction with respect to the control diet: concentration or dose not given beside the values
Method: (§1) In a second experimental series, tha activity of certain products according to the invention were tested on animals which had received an atherosclerosis inducing diet for a long period.
(§2) The test was carried out on Wistar female rats, of weight about 160-180 g.
(§3) The animals received food coming from the National Nutrition plant of Villemoisson-sur-Orge, France, and denoted by the reference UAR AO3, enriched in cholesterol (0.5%) and in cholic acid (0.5%).
(§4) After 15 days of the atherosclerosis inducing diet and whilst maintaining the animals on an atherosclerosis inducing diet, they were given orally for 4 days 250.000 iu/kg of vitamine D2 marketed under the name Sterogyl 25H, in solution in olive oil.
(§5) Then the products under study were administered for 4 weeks, from the end of the administration of the lesion-inducing agent.
At the end of the study, biochemical examinations were carried out on all the animals [total cholesterol, high density lipoprotein (HDL) and cholesterol low density lipoprotein (LDL), and triglycerides].
(§6) Then the pecentage reduction with respect to the diet controls and the score were calculated, that is to say the ratio of the intensity of the activity of the product tested with respect to that of the activity of clofibrate, reckoned as 1.
Table IX gives the detailed results of the biochemical examination:
(a) in % reduction with respect to the control die;
(b) as score, with respect to the reference product, clofibrate, the latter being counted as 1.

[3] = tested on: atherosclerosis lesions; experiment: Atherosclerosis inducing diet: macroscopic exams (affected animals); format: in vivo, Wistar female rats
Method: as §1, §2, §3, §4, §5
At the end of the study, all the animals still alive were sacrificed, and various organs were removed, particularly the aorta, for histological study of the latter. Two criteria were examined: the number of atherosclerosis areas and the severity of the lesions.
as §6
Table X gives the results of macroscopic examinations:
(a) in % decrease in animals afflicted with lesions;
(b) as score with respect to the reference clofibrate, of which the score was counted as 1.

[4] = read-out: Total cholesterol, % of decrease with respect to Triton control
[5] = read-out: Total lipids, % of decrease with respect to Triton control
[6] = read-out: Triglycerides, % of decrease with respect to Triton control

Row | Compound | change in vivo at 250 mg/kg [1, 4] [%] | change in vivo at 250 mg/kg [1, 5] [%] | change in vivo at 250 mg/kg [1, 6] [%] | other results
1 | CCOC(=O)CCCCCNS(=O)(=O)c1cc(Cl)c([N+](=O)[O-])cc1OC [compound 380, ethyl ester of (5-chloro 4-nitro 2-methoxy benzenesulfonamide)caproic acid] | -19 | -31 | -86 | –
2 | CCOC(=O)CCCCCNS(=O)(=O)c1cc(Cl)c(N)cc1OC [compound 469] | -3 | -30 | -28 | –
3 | CCOC(=O)CCCNS(=O)(=O)c1cc(Cl)c(N)cc1OC [compound 484] | – | -41 | – | –
4 | CCOC(=O)CCCNS(=O)(=O)c1cc(Cl)c([N+](=O)[O-])cc1OC [compound 486] | – | -66 | -21 | –
5 | COc1cc([N+](=O)[O-])c(Cl)cc1S(=O)(=O)NCCCCCCCCCCC(=O)O [compound 501] | -24 | -17 | -18 | –
6 | CCOC(=O)CCCCCCCCCCNS(=O)(=O)c1cc(Cl)c(N)cc1OC [compound 503] | – | -26 | -18 | –
7 | COc1cc([N+](=O)[O-])c(Cl)cc1S(=O)(=O)NCCCCCCCC(=O)O [compound 504] | -45 | – | – | –
8 | CCOC(=O)CCCCCCCNS(=O)(=O)c1cc(Cl)c([N+](=O)[O-])cc1OC [compound 508] | -8 | -17 | – | –
9 | O=C(O)CCCCCNS(=O)(=O)c1ccc([N+](=O)[O-])cc1 [compound 562] | – | -6 | – | –
10 | CCOC(=O)CCCCCNS(=O)(=O)c1ccc([N+](=O)[O-])cc1 [compound 563] | -8 | -27 | – | –
11 | O=C(O)CCCCCCCCCCNS(=O)(=O)c1ccc([N+](=O)[O-])cc1 [compound 564] | – | -37 | -15 | –
12 | CCOC(=O)CCCCCNS(=O)(=O)c1ccc([N+](=O)[O-])cc1OC [compound 608] | -19 | -15 | – | –
13 | CCOC(=O)CCCCCNS(=O)(=O)c1ccc(N)cc1 [compound 609] | -40 | – | -2 | –
14 | CCOC(=O)CCCCCCCCCCNS(=O)(=O)c1ccc([N+](=O)[O-])cc1 [compound 610] | -20 | -2 | – | –
15 | CCOC(=O)CCCCCCCCCCNS(=O)(=O)c1ccc([N+](=O)[O-])cc1OC [compound 611] | -29 | -15 | – | –
16 | CCOC(=O)CCCCCNS(=O)(=O)c1ccc(N)cc1OC [compound 612] | -1 | -48 | -13 | –
17 | CCOC(=O)CCCNS(=O)(=O)c1ccc(N)cc1 [compound 624] | -18 | – | – | –
18 | CCOC(=O)CCCNS(=O)(=O)c1ccc([N+](=O)[O-])cc1OC [compound 625] | – | – | -5 | –
19 | CCOC(=O)CCCCCCCCCCNS(=O)(=O)c1ccc(N)cc1 [compound 626] | -18 | – | – | –

Row | Compound | change in vivo at 250 mg/kg [1, 4] [%] | change in vivo at 250 mg/kg [1, 5] [%] | change in vivo at 250 mg/kg [1, 6] [%] | other results
20 | CCOC(=O)CCCNS(=O)(=O)c1ccc(N)cc1OC [compound 656] | -14 | -3 | -29 | –
21 | COc1cc([N+](=O)[O-])ccc1S(=O)(=O)NCCCC(=O)O [compound 660] | -42 | -36 | -90 | –
22 | COc1cc([N+](=O)[O-])ccc1S(=O)(=O)NCCCCCCCCCCC(=O)O [compound 661] | -37 | – | -86 | –
23 | CCOC(=O)CCCCCNS(=O)(=O)c1cccc([N+](=O)[O-])c1 [compound 666] | – | -20 | – | –
24 | Nc1ccc(S(=O)(=O)NCCCCCCCCCCC(=O)O)cc1 [compound 667] | -7 | -45 | – | –
25 | COc1cc(N)ccc1S(=O)(=O)NCCCCCCCCCCC(=O)O [compound 668] | -27 | -20 | -29 | –
26 | Nc1cccc(S(=O)(=O)NCCCC(=O)O)c1 [compound 680] | – | -46 | -16 | –
27 | CCOC(=O)CCCCCNS(=O)(=O)c1cccc(N)c1 [compound 682] | – | -22 | -34 | –
28 | CCOC(=O)CCCCCCCCCCNS(=O)(=O)c1cccc(N)c1 [compound 683] | – | -19 | -52 | –
29 | COc1cc(N)ccc1S(=O)(=O)NCCCCCC(=O)O [compound 694, ε(4-amino 2-methoxybenzenesulfonamido)caproic acid] | -32 | -31 | -65 | –
30 | Nc1cccc(S(=O)(=O)NCCCCCCCCCCC(=O)O)c1 [compound 695] | -24 | -20 | -27 | –
31 | COc1cc([N+](=O)[O-])ccc1S(=O)(=O)NCCCCCC(=O)O [compound 696, ε(4-nitro 2-methoxybenzenesulfonamido)caproic acid] | -56 | -46 | -59 | –
32 | O=C(O)CCCCCCCCCCNS(=O)(=O)c1cccc([N+](=O)[O-])c1 [compound 697] | -46 | -35 | -50 | –
33 | CCOC(=O)CCCCCCCCCCNS(=O)(=O)c1ccc(Cl)cc1 [compound 728] | – | -32 | -53 | –
34 | CCOC(=O)CCCCCCCNS(=O)(=O)c1cc(Cl)c(N)cc1OC [compound 730] | – | – | -10 | –
35 | O=C(O)CCCNS(=O)(=O)c1cccnc1 [compound 786] | -36 | -24 | -17 | TRIGLYCERIDES, % reduction with respect to the control diet ([2]; 4 weeks administration): -17,24%; CHOLESTEROL HDL, % with respect to the control diet ([2]; HDL, 4 weeks administration): -20,83%; CHOLESTEROL LDL, % reduction with respect to the control diet ([2]; LDL, 4 weeks administration): -57,07%; CHOLESTEROL LDL, Score with respect to clofibrate ([2]; clofibrate counted as 1): 1,03; CHOLESTEROL T, Score with respect to clofibrate ([2]; clofibrate counted as 1): 1,11; TRIGLYCERIDES, Score with respect to clofibrate ([2]; clofibrate counted as 1): 0,71; CHOLESTEROL T, % reduction with respect to the control diet ([2]; total cholesterol, 4 weeks administration): -54,22%; % decrease in animals afflicted with lesions [3]: 6,67%; Score with respect to the reference clofibrate (animals afflicted with lesions) ([3]; clofibrate counted as 1): 0,37; AFFECTED ANIMALS % ([3]; macroscopic exams, TEM-diet 100): 93,33%
36 | O=C(O)CCCCCNS(=O)(=O)c1cccs1 [compound 800] | -13 | -33 | -5 | –
37 | O=C(O)CCCCCCCCCCNS(=O)(=O)c1cccs1 [compound 823] | -41 | -25 | – | –
